Laboratory results from US20230041334A1, “METHODS AND COMPOSITIONS FOR SMOKING CESSATION” (BEHAVIORAL DIAGNOSTICS, LLC, priority 2019, published 2023).

Tests used:
Type in all cases: in vivo, human
[1] = test system: Smokers interested in stopping smoking; assay: Randomized placebo-controlled sildenafil smoking cessation trial with incentive-based programming; cessation determined by serum cotinine
Procedure: (§1) Smokers interested in stopping smoking were imaged using a dual energy computerized tomography (DECT) protocol to determine baseline lung density and perfusion, then randomized to receive either 20 mg of sildenafil or placebo each day. Subjects were then followed each month for three months (i.e., 30, 60 and 90 days) to asses changes in lung density via DECT and alterations in the diffusing capacity of the lung for carbon monoxide (DLCO) (e.g., improved gas exchange) in conjunction with the determination of the level of smoking cessation by means of serum cotinine levels. As per standard protocol, the research team was blinded to treatment group until the subject had exited the trial and DECT image analysis was completed. Importantly, because serum cotinine levels were used to determine smoking cessation status, subjects were not allowed to use nicotine replacement therapy. However, in order to encourage the likelihood of smoking cessation, subjects were given incentive-based programming.
In this paradigm, subjects are financially rewarded for smoking cessation (see, for example, Alford et al., 2010, PNAS USA, 107:7485-90; Iyer et al., 2016, Am. J. Resp. Crit. Care Med., 193:652-61).
The results were analyzed from the first 48 subjects who enrolled in the study. Briefly, the subjects in the cohort were largely of European ancestry, and the cohort was evenly balanced between males and females, with subjects of both genders tending to be between 30 and 60 years of age. As evidenced by their pre-experiment serum cotinine levels, they also tended to be moderate to heavy smokers.
In order to qualify for the financial incentive of $400, the subjects had to complete all 4 visits (intake and 3 follow-up visits at 30, 60 and 90 days) and had to quit smoking as evidenced by serum cotinine levels. In total, of the first 48 subjects enrolled in the study, 9 subjects completed just the intake, 7 subjects participated in both the intake and first visit, and 31 subjects completed all 4 visits in the study (Table 3). Data from one subject who dropped immediately from the study is not available.

[2] = test system: Smokers interested in stopping smoking; assay: Lung density (inflammation) by dual energy computerized tomography (DECT) in the sildenafil trial; conditions: 20 mg/day
Procedure: as §1

[3] = test system: Smokers interested in stopping smoking; assay: Diffusing capacity of the lung for carbon monoxide (DLCO) in the sildenafil trial; conditions: 20 mg/day
Procedure: as §1

[4] = group who successfully stopped smoking for 90 days on sildenafil
[5] = sildenafil without smoking cessation

SMILES: CCCc1nn(C)c2c(=O)[nH]c(-c3cc(S(=O)(=O)N4CCN(C)CC4)ccc3OCC)nc12 [Sildenafil, sildenafil]
- Cessation: <50% reduction of cotinine (number of subjects) ([1]; 20 mg sildenafil each day, N=24): 3
- Cessation: Visits with <2 ng/ml cotinine (number of visits) ([1]; 20 mg sildenafil each day, N=24, 30-, 60- and 90-day visits): 36
- Cessation: Quit at 90 days (number of subjects) ([1]; 20 mg sildenafil each day, N=24, by serum cotinine): 12
- Follow-up visits with negative serum cotinine values (<2 ng/ml) ([1]; 20 mg/day, 30-, 60- and 90-day visits, vs. placebo p<0.002, Exact Test): 36 of 72
- Females having achieved abstinence at 90 days (negative serum cotinine) ([1]; 20 mg/day, females): 6
- Full or partial response of treatment (≥average 50% reduction of intake cotinine levels compared to average of 30-, 60- and 90-day visits) (subjects) ([1]; 20 mg/day, intention to treat, vs. placebo p<0.02 Exact Test): 15 of 24
- Complete cessation (subjects) ([1]; 20 mg/day, intention to treat, vs. placebo p<0.09, Exact Test): 12 of 24
- Males having achieved abstinence at 90 days (negative serum cotinine) ([1]; 20 mg/day, males): 6
- Change in lung density (inflammation) [2, 4]: significant loss of lung density
- Change in lung density (inflammation) [2, 5]: no significant change
- Change in DLCO [3, 4]: improvement in DLCO
- Change in DLCO [3, 5]: no significant change
